Two molecules from patent publication US20230172837A1, “AGENT FOR PREVENTING AND/OR IMPROVING PHOTOAGING AND/OR DERMAL PIGMENTATION, COSMETIC METHOD USING SAME, AND COSMETIC DEVICE TO BE APPLIED IN SAID METHOD” (SHISEIDO COMPANY, LTD., priority 2020, published 2023) can be followed below.

SMILES strings stand for the structures.

The test system of the test is M0 macrophages differentiated from THP-1. In words: Intracellular activity of M0 macrophages, flux analyzer (OCR). Format: cell-based, human. The following applies: M0, 3 ppm, 48 hours, versus solvent (DMSO) alone. How it is done:
M0 macrophages, M1 macrophages and M2 macrophages induced to differentiate from THP-1 by the same method as Experiment 2 were measured for intracellular activity using an XFe24 (24-well) extracellular flux analyzer by Agilent Technologies (previously Seahorse Bioscience) (hereunder referred to as “flux analyzer”), with reference to Nat Immunol, 2014. 15(9): pp 846-855 (NPL 14). A flux analyzer is a device that allows non-invasive, highly sensitive periodic measurement of cells to determine the state of glycolysis as the main cellular energy metabolism pathway, and aerobic respiration by mitochondria.
Using a flux analyzer, oligomycin (ATP synthase inhibitor) (“Oligo”), FCCP (uncoupling agent) and rotenone (mitochondrial complex I inhibitor)+antimycin A (mitochondria complex III inhibitor) (“Rot+Ant”) were added at predetermined times and the oxygen consumption rate (OCR) and extracellular acidification rate (ECAR) were measured. The ECAR and OCR values used were the basal OCR and basal ECAR values at 18.3 minutes after measurement. Each measured value was calibrated by the number of cells determined by counting the cell nuclei stained by addition of Hoechst.
M0, M1 and M2 differentiated from THP-1 were prepared by the same method as Experiment 2, and hakushinin extract (hakushinin hydrolysate) prepared by the same method as Experiment 13 was added to the M0 (at 0.3 ppm, 1 ppm or 3 ppm). At 48 hours after incubation, the oxygen consumption rate (OCR) was measured using a flux analyzer. Each measured value was calibrated by the number of cells determined by counting the cell nuclei stained by addition of Hoechst (FIG. 21).
M0 and M2 differentiated from THP-1 were prepared by the same method as Experiment 2, linoleic acid, linolenic acid or juniperonic acid (3 ppm) was added to M0, and after 48 hours the oxygen consumption rate (OCR) was measured with a flux analyzer by the same method as Experiment 15. Each measured value was calibrated by the number of cells determined by counting the cell nuclei stained by addition of Hoechst.
The Basal OCR and mitochondrial respiration values for M0 were examined with the incubation time changed to 24 hours after addition of the hakushinin extract or unsaturated fatty acid. The experiment method was carried out by the same method as described in Experiment 17, except that the incubation time was changed to 24 hours after addition of the hakushinin extract or unsaturated fatty acid.

For the molecule `CC/C=C\C/C=C\C/C=C\CCCC/C=C\CCCC(=O)O` [juniperonic acid], the “Basal OCR” value is “not significantly different” and the mitochondrial respiration result is recorded as “not significantly different”.

Turning to `CCCCC/C=C\C/C=C\CCCCCCCC(=O)O` [linoleic acid], the “Basal OCR” value was “not significantly different” and the mitochondrial respiration result is on record as “not significantly different”.
